Measurements taken from article PMC3116189, “Novel Natural Inhibitors of CYP1A2 Identified by in Silico and in Vitro Screening” (International Journal of Molecular Sciences, 2011).

Target: T1, CYP1A2 (Homo sapiens, UniProt P05177)
T1 sequence (P05177 1-516): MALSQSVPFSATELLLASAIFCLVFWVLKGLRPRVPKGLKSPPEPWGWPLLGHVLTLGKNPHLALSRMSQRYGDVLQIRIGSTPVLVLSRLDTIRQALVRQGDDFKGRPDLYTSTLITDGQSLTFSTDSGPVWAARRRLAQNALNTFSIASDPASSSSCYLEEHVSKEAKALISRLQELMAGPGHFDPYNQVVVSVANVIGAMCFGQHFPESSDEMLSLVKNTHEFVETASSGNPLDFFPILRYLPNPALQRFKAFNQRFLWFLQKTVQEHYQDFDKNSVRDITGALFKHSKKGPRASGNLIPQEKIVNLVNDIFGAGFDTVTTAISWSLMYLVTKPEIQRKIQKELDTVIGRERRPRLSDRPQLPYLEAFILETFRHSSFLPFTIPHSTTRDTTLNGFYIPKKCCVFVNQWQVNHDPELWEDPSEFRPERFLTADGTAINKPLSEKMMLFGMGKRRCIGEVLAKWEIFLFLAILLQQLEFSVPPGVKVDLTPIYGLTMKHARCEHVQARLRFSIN
Experiment: in vitro
Type: biochemical
Conditions: 1 μM active ingredient, Rh CYP1A2-mediated phenacetin O-deethylation, test dataset of 202 herb ingredients
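Further: recombinant CYP1A2 incubated for 1 h at 37 °C, with the reaction started by an NADPH-generating system.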

Row | Compound | % of Control Indication Activity (Mean) [%]
1 | COc1ccc(-c2oc3c(CC=C(C)C)c(O[C@@H]4O[C@H](CO)[C@@H](O)[C@H](O)[C@H]4O)cc(O)c3c(=O)c2O)cc1 [Icariside I] | > 90
2 | COc1cc2c(cc1O)CC[n+]1cc3c(OC)c(OC)ccc3cc1-2.[Cl-] [Jatrorrhizine Hydrochloride] | > 90
3 | COc1cc2c(cc1OC)[C@@H](Cc1ccc(O)c(Oc3cc4c(cc3OC)CCN(C)[C@@H]4Cc3ccc(O)cc3)c1)N(C)CC2 [Liensinine] | > 90
4 | COc1ccc(-c2cc(=O)c3c(O)cc(O[C@@H]4O[C@H](CO[C@@H]5O[C@@H](C)[C@H](O)[C@@H](O)[C@H]5O)[C@@H](O)[C@H](O)[C@H]4O)cc3o2)cc1 [Linarin] | > 90
5 | COC[C@]12CN(C)[C@@H]3[C@@H]4[C@H](OC)[C@H]1[C@@]3([C@@H](OC)C[C@H]2O)[C@@H]1C[C@@]2(O)[C@H](OC(=O)c3ccccc3)[C@@H]1[C@]4(OC(C)=O)[C@@H](O)[C@@H]2OC [Mesaconitine] | > 90
6 | C[C@@H]1CCCCCCCCCCCCC(=O)C1 [Muscone] | > 90
7 | CC(C)=CCC[C@](C)(O[C@@H]1O[C@H](CO)[C@@H](O)[C@H](O)[C@H]1O)[C@H]1CC[C@]2(C)[C@@H]1[C@H](O)C[C@@H]1[C@@]3(C)CC[C@H](O)C(C)(C)[C@@H]3[C@@H](O[C@@H]3O[C@H](CO)[C@@H](O)[C@H](O)[C@H]3O[C@@H]3OC[C@@H](O)[C@H](O)[C@H]3O)C[C@]12C [Notoginsenoside R1] | > 90
8 | C[C@H]1CC[C@@]2(O)C(C)(C)[C@@H]3CC[C@@]2(C)[C@H]1C3 [Patchouli alcohol] | > 90

Same assay, conditions: human, recombinant enzyme, pH 7.4

Row | Compound | activity at 1 h, 1 μM [%]
9 | C=CCc1ccc(O)c(-c2ccc(O)c(CC=C)c2)c1 [Honokiol] | 33.6
10 | O=c1c(O[C@@H]2O[C@H](CO)[C@H](O)[C@H](O)[C@H]2O)c(-c2ccc(O)c(O)c2)oc2cc(O)cc(O)c12 [Hyperoside] | > 90
11 | COc1ccc(-c2oc3c(CC=C(C)C)c(O)cc(O)c3c(=O)c2O)cc1 [Icaritin] | > 90

More lines, now with the values ahead:

Row | activity at 1 h, 1 μM [%] | Compound
12 | > 90 | O=C1C[C@@H](c2ccc(O[C@@H]3O[C@H](CO)[C@@H](O)[C@H](O)[C@H]3O)cc2)Oc2cc(O)ccc21 [Liquiritin]
13 | > 90 | COC(=O)c1c2c(c3ccccc3c1O)OC(C)(C)C=C2 [Mollugin]
14 | > 90 | C[C@@H]1O[C@@H](O[C@H]2[C@H](Oc3cc(O)c4c(c3)O[C@H](c3ccc(O)cc3)CC4=O)O[C@H](CO)[C@@H](O)[C@@H]2O)[C@H](O)[C@H](O)[C@H]1O [Naringin]
15 | 86.8 | COc1ccc2ccc(=O)oc2c1CC=C(C)C [Osthole]
16 | > 90 | COc1cc(C(=O)O[C@H]2[C@@H]3C=CO[C@@H](O[C@@H]4O[C@H](CO)[C@@H](O)[C@H](O)[C@H]4O)[C@@H]3[C@@]3(CO)O[C@@H]23)ccc1O [Picroside-II]

Same assay, conditions: human, recombinant enzyme, pH 7.4; 1 μM active ingredient, Rh CYP1A2-mediated phenacetin O-deethylation, test dataset of 202 herb ingredients; read-out: % of Control Indication Activity (Mean)

Row | activity at 1 h, 1 μM [%] | Compound
17 | > 90 | COc1cc2c[n+](C)c3c4cc5c(cc4ccc3c2cc1OC)OCO5 [Nitidine]

Same assay, conditions: human, recombinant human CYP1A2, pH 7.4, probe phenacetin (25 μM), O-deethylation to acetaminophen; 1 μM active ingredient, Rh CYP1A2-mediated phenacetin O-deethylation, test dataset of 202 herb ingredients; read-out: % of Control Indication Activity (Mean)

Row | Compound | activity at 1 h, 1 μM [%]
18 | CC(C)=CCC[C@](C)(O[C@@H]1O[C@H](CO[C@@H]2O[C@H](CO)[C@@H](O)[C@H](O)[C@H]2O)[C@@H](O)[C@H](O)[C@H]1O)[C@H]1CC[C@]2(C)[C@@H]1[C@H](O)C[C@@H]1[C@@]3(C)CC[C@H](O[C@@H]4O[C@H](CO)[C@@H](O)[C@H](O)[C@H]4O[C@@H]4O[C@H](CO)[C@@H](O)[C@H](O)[C@H]4O)C(C)(C)[C@@H]3CC[C@]12C [Ginsenoside Rb1] | > 90
19 | CC(C)=CCC[C@](C)(O[C@@H]1O[C@H](CO)[C@@H](O)[C@H](O)[C@H]1O)[C@H]1CC[C@]2(C)[C@@H]1[C@H](O)C[C@@H]1[C@@]3(C)CC[C@H](O)C(C)(C)[C@@H]3[C@@H](O[C@@H]3O[C@H](CO)[C@@H](O)[C@H](O)[C@H]3O[C@@H]3O[C@@H](C)[C@H](O)[C@@H](O)[C@H]3O)C[C@]12C [Ginsenoside Re] | > 90
20 | CC(C)=CCC[C@](C)(O[C@@H]1O[C@H](CO)[C@@H](O)[C@H](O)[C@H]1O)[C@H]1CC[C@]2(C)[C@@H]1[C@H](O)C[C@@H]1[C@@]3(C)CC[C@H](O)C(C)(C)[C@@H]3[C@@H](O[C@@H]3O[C@H](CO)[C@@H](O)[C@H](O)[C@H]3O)C[C@]12C [Ginsenoside Rg1] | > 90
21 | CC1(C)[C@@H](O)CC[C@]2(C)[C@H]3C(=O)C=C4[C@@H]5C[C@@](C)(C(=O)O)CC[C@]5(C)CC[C@@]4(C)[C@]3(C)CC[C@@H]12 [Glycyrrhetinic acid] | > 90
22 | C[C@]1(OC(=O)/C=C/c2ccccc2)C[C@@H](O)[C@]2(O)C=CO[C@@H](O[C@@H]3O[C@H](CO)[C@@H](O)[C@H](O)[C@H]3O)[C@@H]21 [Harpagoside] | > 90
23 | CC1(C)CC[C@]2(C(=O)O)CC[C@]3(C)C(=CC[C@@H]4[C@@]5(C)CC[C@H](O)[C@@](C)(CO)[C@@H]5CC[C@]43C)[C@@H]2C1 [Hederagenin] | > 90
24 | O=C1/C(=C2\Nc3ccccc3C2=O)Nc2ccccc21 [Indigo] | > 90
25 | O=C1Nc2ccccc2/C1=C1/Nc2ccccc2C1=O [Indirubin] | > 90
26 | COc1cc(-c2coc3cc4c(c(OC)c3c2=O)OCO4)cc(OC)c1OC [Irisflorentin] | > 90
27 | COc1ccc(/C=C/C(=O)O)cc1O [Isoferulic acid] | > 90
28 | C[C@@]1(CO)C[C@@H](O)C[C@@]2(C)[C@@H]3CC[C@](C)([C@@H](O)CO)C=C3CC[C@H]12 [Kirenol] | > 90

Next, values leading:

Row | activity at 1 h, 1 μM [%] | Compound
29 | > 90 | C/C1=C\CC[C@]23O[C@H]2[C@@H](OC3=O)c2c(C)coc2C1 [Linderane]
30 | > 90 | COC(=O)C1=CO[C@@H](O[C@@H]2O[C@H](CO)[C@@H](O)[C@H](O)[C@H]2O)[C@@H]2[C@@H](C)[C@@H](O)C[C@H]12 [Loganin]
31 | 87.4 | O=c1cc(-c2ccc(O)c(O)c2)oc2cc(O)cc(O)c12 [Luteolin]
32 | > 90 | CC1CCC(C(C)C)C(O)C1 (stereo not drawn) [Menthol]
33 | > 90 | C=C1C(=O)[C@]23[C@H](O)[C@H]1CC[C@H]2[C@@]12CO[C@]3(O)[C@@H](O)[C@@H]1C(C)(C)CC[C@@H]2O [Oridonin]
34 | > 90 | C[C@@]12C[C@@]3(O)O[C@@H](O1)[C@]1(COC(=O)c4ccccc4)[C@H]3C[C@@]12O[C@@H]1O[C@H](CO)[C@@H](O)[C@H](O)[C@H]1O [Paeoniflorin]
35 | > 90 | COc1ccc(-c2cc(=O)c3c(O)c(OC)c(O[C@@H]4O[C@H](CO[C@@H]5O[C@@H](C)[C@H](O)[C@@H](O)[C@H]5O)[C@@H](O)[C@H](O)[C@H]4O)cc3o2)cc1 [Pectolinarin]
36 | > 90 | COc1cc(O)c2c(c1)C(=O)c1cc(C)cc(O)c1C2=O [Physcion]

Same assay, conditions: recombinant enzyme

Row | Compound | % of Control Indication Activity (Mean)
37 | COc1ccc([C@@H]2CC(=O)c3c(O)cc(O[C@@H]4O[C@H](CO[C@@H]5O[C@@H](C)[C@H](O)[C@@H](O)[C@H]5O)[C@@H](O)[C@H](O)[C@H]4O)cc3O2)cc1O [Hesperidin] | > 90
38 | COc1cc2ccc(=O)oc2c(OC)c1O [Isofraxidin] | > 90
39 | CC1(C)CC[C@]2(C(=O)O)CC[C@]3(C)C(=CC[C@@H]4[C@@]5(C)CC[C@H](O[C@@H]6O[C@H](C(=O)O)[C@@H](O)[C@H](O[C@@H]7OC[C@@H](O)[C@H](O)[C@H]7O)[C@H]6O)C(C)(C)[C@@H]5CC[C@]43C)[C@@H]2C1 [Momordin Ic] | > 90
40 | COc1cc2c(cc1OC)-c1cc3ccc(OC)c(OC)c3c[n+]1CC2.[Cl-] [Palmatine Hydrochloride] | > 90

Same assay, conditions: recombinant enzyme, pH 7.4; 1 μM active ingredient, Rh CYP1A2-mediated phenacetin O-deethylation, test dataset of 202 herb ingredients; read-out: % of Control Indication Activity (Mean)

Row | Compound | activity [%] | activity at 1 h, 1 μM [%]
41 | COC[C@@]12CC[C@H](OC)[C@]34C(C([C@H](OC)[C@H]13)[C@]1(OC(C)=O)[C@H]3[C@@H](OC(=O)c5ccccc5)[C@](O)(C[C@H]34)[C@@H](OC)[C@@H]1O)N(C)C2 [Hypaconitine] | > 90 | 
42 | CC(C)=CCOc1c2occc2cc2ccc(=O)oc12 [Imperatorin] | > 90 | 
43 | O=c1ccc2ccc3occc3c2o1 [Isopsoralen] |  | > 90
44 | COc1cc(-c2oc3cc(O)cc(O)c3c(=O)c2O)ccc1O [Isorhamnetin] | > 90 | 
45 | CC1=C2C(=O)[C@H]3[C@@H](CC=C4C[C@@H](O)CC[C@@]43C)[C@@H]2CC[C@]12O[C@@H]1C[C@H](C)CN[C@H]1[C@H]2C [Jervine] |  | > 90
46 | C=CCc1ccc(O)c(-c2cc(CC=C)ccc2O)c1 [Magnolol] | > 90 | 
47 | O=C1CCC[C@@H]2[C@H]3CCCN4CCC[C@@H](CN12)[C@@H]34 [Matrine] | > 90 | 
48 | CCCCCCCCCC(C)=O [Methyl nonylketone] | > 90 | 
49 | COc1cc2c3c(c1OC)-c1ccccc1C[C@H]3N(C)CC2 [Nuciferine] | 85.5 | 
50 | CC1(C)CC[C@]2(C(=O)O)CC[C@]3(C)C(=CC[C@@H]4[C@@]5(C)CC[C@H](O)C(C)(C)[C@@H]5CC[C@]43C)[C@@H]2C1 [Oleanol ic acid] |  | > 90
51 | O=C(/C=C/C=C/c1ccc2c(c1)OCO2)N1CCCCC1 [Piperine] |  | > 90
